Measured values reported in US20120004228A1, “Bis Aromatic Compounds for Use as LTC4 Synthase Inhibitors” (BIOLIPOX AB, priority 2009, published 2012).
pIC50: −log10 of the molar value.

Target: T1, Recombinant human LTC4 synthase (Homo sapiens, UniProt Q16873)
T1 construct: made in house; host or cells: Pichia pastoris ('Piccia pastoralis' [sic])
T1 sequence (Q16873 1-150): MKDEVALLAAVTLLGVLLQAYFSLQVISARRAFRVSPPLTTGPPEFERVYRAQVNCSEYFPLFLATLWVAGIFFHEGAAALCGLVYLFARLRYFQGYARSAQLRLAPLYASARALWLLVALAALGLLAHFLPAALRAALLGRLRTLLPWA
Experiment: In vitro LTC4 synthase assay (LTA4 to LTC4, HTRF detection)
Type: biochemical
Conditions: for inhibition at 10 µM: 5 min, total concentration of title compound in the assay 10 μM

SMILES	pIC50	inhibition at 10 µM [%]
CCCCCCC(=O)Nc1cc(C(=O)O)cc(C(=O)c2ccc(N(C)c3ccc(Cl)cc3)cc2)c1 [Example 1:2, 3-{4-[(4-Chlorophenyl)(methyl)amino]benzoyl}-5-heptylamidobenzoic acid]	6.86	94
CN(c1ccc(Cl)cc1)c1ccc(C(=O)c2cc(C(=O)O)cc(C(=O)Nc3ccccc3)c2)nc1 [Example 2:1, 3-{5-[(4-Chlorophenyl)(methyl)aminol]picolinoyl}-5-(phenylcarbamoyl)benzoic acid]	6.35	
CN(c1ccc(Cl)cc1)c1ccc(C(=O)c2cc(C(=O)O)cc(C(=O)Nc3ccccc3)c2)cc1 [Example 2:11]	6.16	
CCCCCCC(=O)Nc1ccc(C(=O)c2ccc(Nc3ccc(Cl)cc3)cc2C(=O)O)cc1 [Example 4:1, 5-(4-Chlorophenylamino)-2-(4-heptylamidobenzoyl)benzoic acid]	6.19	98
O=C(O)c1cc(Nc2ccc(Cl)cc2)ccc1C(=O)c1ccc(Nc2ccc(Cl)cc2)cc1 [Example 6:1, 5-(4-Chlorophenylamino)-2-[4-(4-chlorophenylamino)benzoyl]benzoic acid]	6.20	96
CCCCOc1ccc(S(=O)(=O)Nc2cc(C(=O)O)cc(C(=O)c3ccc(Nc4ccc(Cl)cc4)cc3)c2)cc1 [Example 7, 3-(4-Butoxybenzensulfonamido)-5-[4-(4-chlorophenylamino)benzoyl]benzoic acid]	7.05	98
CN(c1ccc(Cl)cc1)c1ccc(C(=O)c2cc(Oc3ccccc3)cc(C(=O)O)c2)nc1 [Example 8:1, 3-{5-[(4-Chlorophenyl)(methyl)aminol]picolinoyl}-5-phenoxybenzoic acid]	7.17	
CN(c1ccc(Cl)cc1)c1ccc(C(=O)c2cc(Oc3ccc(F)c(F)c3)cc(C(=O)O)c2)cc1 [Example 8:9, 3-{4-[(4-Chlorophenyl)(methyl)amino]benzoyl}-5-(3,4-difluorophenoxy)benzoic acid]	7.52	
CN(c1ccc(Cl)cc1)c1ccc(C(=O)c2cc(C(=O)O)cc(N(C)c3cccc(Cl)c3)c2)nc1 [Example 9:1, 3-[(3-Chlorophenyl)(methyl)amino]-5-{5-[(4-chlorophenyl)(methyl)amino]-picolinoyl}benzoic acid]	6.83	
CN(c1ccc(Cl)cc1)c1ccc(C(=O)c2cc(Nc3cccc(Cl)c3)cc(C(=O)O)c2)nc1 [Example 9:2, 3-{5-[(4-Chlorophenyl)(methyl)amino]picolinoyl}-5-(3-chlorophenylamino)-benzoic acid]	6.61	
CN(c1ccc(Cl)cc1)c1cc(C(=O)O)cc(C(=O)c2ccc(N(CC3CC3)c3ccc(Cl)cc3)cn2)c1 [Example 9:16, 3-{5-[(4-Chlorophenyl)(cyclopropylmethyl)amino]picolinoyl}-5-[(4-chlorophenyl)-(methyl)amino]benzoic acid]	7.77	
CC(=O)N(c1ccccc1)c1cc(C(=O)O)cc(C(=O)c2ccc(N(C)c3ccc(Cl)cc3)cn2)c1 [Example 9:23, 3-{5-[(4-Chlorophenyl)(methyl)amino]picolinoyl}-5-(N-phenylacetamido)benzoic acid]	6.70	
CN(c1ccc(Cl)cc1)c1ccc(C(=O)c2cc(C(=O)O)cc(N(C)c3ccc(Cl)cc3)c2)cc1 [Example 10:1, 3-[(4-Chlorophenyl)(methyl)amino]-5-{4-[(4-chlorophenyl)(methyl)amino]benzoyl}-benzoic acid]	7.39	
CN(c1ccc(Cl)cc1)c1ccc(C(=O)c2cc(Nc3ccc(Cl)cc3)cc(C(=O)O)c2)cc1 [Example 10:2, 3-{4-[(4-Chlorophenyl)(methyl)amino]benzoyl}-5-(4-chlorophenylamino)-benzoic acid]	7.19	
CN(c1ccc(Cl)cc1)c1ccc(C(=O)c2cc(C(=O)O)cc(N(C)c3ccccc3)c2)cc1 [Example 10:23, 5-{4-[(4-Chlorophenyl)(methyl)amino]benzoyl}-3-[methyl(phenyl)amino]benzoic acid]	7.40	
CC(C)OCC(O)CN(c1ccccc1)c1cc(C(=O)O)cc(C(=O)c2ccc(N(C)c3ccc(Cl)cc3)cc2)c1 (stereo not shown) [Example 10:38, 3-{4-[(4-Chlorophenyl)(methyl)amino]benzoyl}-5-[(2-hydroxy-3-isopropoxy-propyl)(phenyl)amino]benzoic acid]	6.74	
COc1ccc(COc2cc(C(=O)O)cc(C(=O)c3ccc(N(C)c4ccc(Cl)cc4)cn3)c2)cc1 [Example 11:1, 3-{5-[(4-Chlorophenyl)(methyl)aminol]picolinoyl}-5-(4-methoxybenzyloxy)benzoic acid]	6.05	
CN(c1ccc(Cl)cc1)c1ccc(C(=O)c2cc(Cc3ccccc3)cc(C(=O)O)c2)nc1 [Example 13, 3-Benzyl-5-{5-[(4-chlorophenyl)(methyl)amino]picolinoyl}benzoic acid]	6.53	

Further compounds by rising pIC50, results first:

pIC50	inhibition at 10 µM [%]	SMILES
6.15	100	CN(c1ccc(Cl)cc1)c1ccc(C(=O)c2ccc(NC(=O)c3cccc(Cl)c3)cc2)c(C(=O)O)c1 [Example 4:2, 2-[4-(3-Chlorobenzamido)benzoyl]-5-[(4-chlorophenyl)(methyl)amino)-benzoic acid]
6.26		CN(c1ccc(Cl)cc1)c1ccc(C(=O)c2cc(NC(=O)c3cccc(C(F)(F)F)c3)cc(C(=O)O)c2)nc1 [Example 2:7, 3-{5-[(4-Chlorophenyl)(methyl)amino]picolinoyl}-5-[3-(trifluoromethyl)benzamido]-benzoic acid]
6.26	100	CN(c1ccc(Cl)cc1)c1ccc(C(=O)c2ccc(NS(=O)(=O)c3ccc(OC(F)(F)F)cc3)cc2)c(C(=O)O)c1 [Example 5, 5-[(4-Chlorophenyl)(methyl)amino]-2-[4-(4-trifluoromethoxybenzenesulfonamido)-benzoyl]benzoic acid]
6.56		CN(c1ccc(Cl)cc1)c1ccc(C(=O)c2cc(C(=O)O)cc(N(C(=O)C3CCC3)c3ccccc3)c2)cc1 [Example 10:31, 3-{4-[(4-Chlorophenyl)(methyl)amino]benzoyl}-5-[(N-phenyl)cyclobutylcarboxamido]benzoic acid]
6.56		COc1cccc(Nc2cc(C(=O)O)cc(C(=O)c3ccc(N(C)c4ccc(Cl)cc4)cc3)c2)c1 [Example 10:3, 3-{4-[(4-Chlorophenyl)(methyl)amino]benzoyl}-5-(3-methoxyphenylamino)-benzoic acid]
6.74		CN(c1ccc(Cl)cc1)c1ccc(C(=O)c2cc(C(=O)O)cc(-c3cccc(Cl)c3)c2)nc1 [Example 12:1, 3′-Chloro-5-{5-[(4-chlorophenyl)(methyl)amino]picolinoyl}biphenyl-3-carboxylic acid]
6.84	99	O=C(O)c1cc(Nc2ccc(Cl)cc2)cc(C(=O)c2ccc(Nc3ccc(Cl)cc3)cc2)c1 [Example 3, 3-(4-Chorophenylamino)-5-[4-(4-chlorophenylamino)benzoyl]benzoic acid]
7.49		CN(c1ccc(Cl)cc1)c1ccc(C(=O)c2cc(C(=O)O)cc(N(CC3CC3)c3ccccc3)c2)nc1 [Example 9:7, 3-{5-[(4-Chlorophenyl)(methyl)amino]picolinoyl}-5-[(cyclopropylmethyl)(phenyl)-amino]benzoic acid]
7.51		CN(c1ccc(Cl)cc1)c1ccc(C(=O)c2cc(C(=O)O)cc(N(CC(C)(C)O)c3ccccc3)c2)nc1 [Example 9:27, 3-{5-[(4-Chlorophenyl)(methyl)amino]picolinoyl}-5-[(2-hydroxy-2-methylpropyl)-(phenyl)amino]benzoic acid]
